# Tested on: 388556-164-R-J1-PDC complex spheroid viability
# Assay: Anticancer human tumor 388556-164-R-J1-PDC patient-derived colon adenocarcinoma cell line growth inhibition [RAS]
# Details: for viability, T/C: stronger effect = lower value
# Description: RAS pathway inhibitors in Combinations in Complex Spheroids
# A high-throughput screen of multi-cell type tumor spheroids was designed to identify active combinations of RAS pathway inhibitors and targeted small molecules. Complex spheroids include a stromal component modeled by human endothelial cells (HUVEC) and fibroblasts modeled by human mesenchymal stem cells (MSCs). The concentration ranges selected for each drug and investigational agent were based upon clinically achievable concentrations if the clinical Cmax of the agent was known.
# Compounds. The drugs and investigational agents: abemaciclib (NSC768073), cobimetinib (NSC768068), divarasib (GDC6063, NSC841802), docetaxel (NSC628503), GDC-1971 (RLY-1971, NSC841576), gemcitabine (NSC613327), inavolisib (NSC800729), ipatasertib (NSC767898), KB-0742 (NSC834161), MRTX-1133 (NSC836407), osimertinib (NSC779217), RMC-4630 (NSC839698), RMC-6236 (NSC851965), RMC-6291 (NSC852671), Ro-3306 (NSC812927), sapanisertib (NSC764658), SN-38 (NSC673596), staurosporine (NSC755774), SY5609 (NSC837396), and tovorafenib (DAY101, NSC766906), were obtained from the National Cancer Institute (NCI) Developmental Therapeutics Program Chemical Repository. The FDA-approved anticancer drug set is available from the NCI Developmental Therapeutics Program. […] The stock solutions were prepared in dimethyl sulfoxide (DMSO, Sigma-Aldrich, St. Louis, MO, cat. D2650) at 800-fold the tested concentration and stored at -70 degrees C prior to their use. All drugs and investigational agents were tested over a range starting from a high concentration at or near the clinical Cmax and decreasing in half-log increments. If the clinical Cmax for an agent had not been determined, the highest concentration tested was 10 microM.
# Cell Culture. All cells were maintained in an incubator at 37 degrees C and 5% CO2 with 95% humidity. The PDC lines were cultured according to standard operating procedures established by the NCI PDMR. All PDCs were thawed and cultured in Matrigel-coated flasks prepared with a working solution of 1X Ham's F-12 nutrient mix, without supplementation (Invitrogen, Waltham, MA, cat. 11765054), 100 U/mL penicillin-streptomycin (Invitrogen, cat. 15140122), and 2.5% Matrigel (Corning Inc., Corning, NY, cat. 354248) for the first three passages. The 362531-283-R-J2-PDC and 782815-120-R-J1-PDC lines were cultured in 6C/Colon 1B media, which includes advanced DMEM/F-12 (Thermo Fisher Scientific, cat. 12634028), 10 mM HEPES (Thermo Fisher Scientific, cat. 15630080), 1X GlutaMAX supplement (Thermo Fisher Scientific, cat. 35050061), 0.1 mg/mL primocin (InvivoGen, San Diego, CA, cat. ant-pm-2), 10% defined fetal bovine serum, heat inactivated (HyClone Laboratories Inc., Logan, UT, cat. SH30070.03HI), 50% L-WRN conditioned media (ATCC, cat. CRL-3276), 1.25 mM N-Acetyl-L-cysteine (Sigma-Aldrich, cat. A9165), 10 mM nicotinamide (Sigma-Aldrich, cat. N0636), 1X B-27 supplement (Thermo Fisher Scientific, cat. 17504044), 1X N-2 supplement (Thermo Fisher Scientific, cat. 17502048), 50 ng/mL human EGF (Thermo Fisher Scientific, cat. PHG0311), and 10 microM Y-27632 dihydrochloride (Tocris Bioscience, cat. 1254). The K12877-001-R-J1-PDC line was cultured in 6I media, which includes all 6C/Colon 1B media plus 10 ng/mL human FGF-10 (PeproTech, cat. 100-26), 1 ng/mL human FGF-2 (PeproTech, cat. 100-18B), 1 µM prostaglandin E2 (Tocris Bioscience, cat. 2296), […] hydrocortisone (Sigma-Aldrich, cat. H4001), and […] bovine insulin (Sigma-Aldrich, cat. I6634). The K86415-001-R-J1-PDC line was cultured in 6D media, which includes all 6C/Colon 1B media components minus the L-WRN conditioned media. The 485176-168-R4-J1-PDC was cultured in PANC media, which includes all 6C/Colon 1B media plus 100 ng/mL human FGF-10 (PeproTech, cat. 100-26), 500 nM SB-431542 (Selleckchem, cat. S1067), and 10 nM gastrin (Tocris Bioscience, cat. 3006). […]
# 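Also: spheroids exposed to compound for 7 days before readout.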
# 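For viability, T/C in this document: 100% = DMSO vehicle control luminescence.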
smiles,measurement,setting,value
NC1c2ccccc2OC12CCN(c1cnc3c(N4CCCc5ncccc54)n[nH]c3n1)CC2 (centres undefined),"viability, T/C",compound 0.0316 µM,70% [middle of 4 runs]
same,"viability, T/C",compound 0.1 µM,59.9% [middle of 4 runs]
same,"viability, T/C",compound 0.316 µM,48.8% [middle of 4 runs]
same,"viability, T/C",compound 1 µM,41.2% [middle of 4 runs]
same,"viability, T/C",compound 3.16 µM,43.6% [middle of 4 runs]
same,"viability, T/C",compound 10 µM,37.6% [middle of 4 runs]
same,IC50,curve of compound,242 nM [middle of 4 runs]
CC1(C)CCC(Nc2ncc(C(F)(F)F)c(-c3c[nH]c4c(P(C)(C)=O)c(C#N)ccc34)n2)CN1 (centres undefined) + C=CC(=O)N1CCN(c2nc(OCC3CCCN3C)nc3c(F)c(-c4nc(N)cc(C)c4C(F)(F)F)c(Cl)cc23)C(C)C1,IC50,"curve of first compound, second compound 0.00316 µM",> 300 nM
same,IC50,"curve of first compound, second compound 0.01 µM",> 300 nM
same,IC50,"curve of first compound, second compound 0.0316 µM",> 300 nM
same,IC50,"curve of first compound, second compound 0.1 µM",> 300 nM
same,IC50,"curve of first compound, second compound 0.316 µM",> 300 nM
same,IC50,"curve of first compound, second compound 1 µM",> 300 nM
same,"viability, T/C","second compound 0.00316 µM, first compound 0.000949 µM",102%
same,"viability, T/C","second compound 0.00316 µM, first compound 0.003 µM",101%
same,"viability, T/C","second compound 0.00316 µM, first compound 0.00949 µM",97%
same,"viability, T/C","second compound 0.00316 µM, first compound 0.03 µM",85%
same,"viability, T/C","second compound 0.00316 µM, first compound 0.0949 µM",95.5%
same,"viability, T/C","second compound 0.00316 µM, first compound 0.3 µM",88.1%
same,"viability, T/C","second compound 0.01 µM, first compound 0.000949 µM",101%
same,"viability, T/C","second compound 0.01 µM, first compound 0.003 µM",95.7%
same,"viability, T/C","second compound 0.01 µM, first compound 0.00949 µM",93.7%
same,"viability, T/C","second compound 0.01 µM, first compound 0.03 µM",99.7%
same,"viability, T/C","second compound 0.01 µM, first compound 0.0949 µM",89.2%
same,"viability, T/C","second compound 0.01 µM, first compound 0.3 µM",87.5%
same,"viability, T/C","second compound 0.0316 µM, first compound 0.000949 µM",102%
same,"viability, T/C","second compound 0.0316 µM, first compound 0.003 µM",100%
same,"viability, T/C","second compound 0.0316 µM, first compound 0.00949 µM",89.8%
same,"viability, T/C","second compound 0.0316 µM, first compound 0.03 µM",103%
same,"viability, T/C","second compound 0.0316 µM, first compound 0.0949 µM",97.8%
same,"viability, T/C","second compound 0.0316 µM, first compound 0.3 µM",96.2%
same,"viability, T/C","second compound 0.1 µM, first compound 0.000949 µM",98.4%
same,"viability, T/C","second compound 0.1 µM, first compound 0.003 µM",99.8%
same,"viability, T/C","second compound 0.1 µM, first compound 0.00949 µM",96.8%
same,"viability, T/C","second compound 0.1 µM, first compound 0.03 µM",84.7%
same,"viability, T/C","second compound 0.1 µM, first compound 0.0949 µM",99.6%
same,"viability, T/C","second compound 0.1 µM, first compound 0.3 µM",87.8%
same,"viability, T/C","second compound 0.316 µM, first compound 0.000949 µM",110%
same,"viability, T/C","second compound 0.316 µM, first compound 0.003 µM",97.6%
same,"viability, T/C","second compound 0.316 µM, first compound 0.00949 µM",102%
same,"viability, T/C","second compound 0.316 µM, first compound 0.03 µM",95.7%
same,"viability, T/C","second compound 0.316 µM, first compound 0.0949 µM",94.1%
same,"viability, T/C","second compound 0.316 µM, first compound 0.3 µM",92.4%
same,"viability, T/C","second compound 1 µM, first compound 0.000949 µM",91.1%
same,"viability, T/C","second compound 1 µM, first compound 0.003 µM",105%
same,"viability, T/C","second compound 1 µM, first compound 0.00949 µM",105%
same,"viability, T/C","second compound 1 µM, first compound 0.03 µM",104%
same,"viability, T/C","second compound 1 µM, first compound 0.0949 µM",94.9%
same,"viability, T/C","second compound 1 µM, first compound 0.3 µM",85%

# Reference: PubChem BioAssay AID2060907 (Molecular Pharmacology Branch, DTP, NCI, 2025)
